Results as given in ChEMBL document CHEMBL1138946, “Toward stable N4-modified neurotensins for NTS1-receptor-targeted tumor imaging with 99mTc” (J Med Chem, 2006).
Starred links: 1 amine or outer side, 2 acyl side, 3 side chain; linkers in the order of their positions; H or OH if unused. Non-standard residues stand in square brackets, D forms with d. Residues, ends and D or L forms follow the SMILES beside them. Groups on a side chain read outwards from the residue. *: point of attachment. X1 = NC(N)=NCCCC(CN([C@@H](CCCN=C(N)N)C(=O)[*:2])[*:1])N[*:3]; X3 = NCCCCC(CN([C@@H](CCCN=C(N)N)C(=O)[*:2])[*:1])N[*:3]; Tle = CC(C)(C)[C@H](N)C(=O)O; X2 = NCCNCC(CNCCN)C(=O)*

Key:
[1] = target: T1, Neurotensin receptor type 1 (Homo sapiens, UniProt P30989); assay: Displacement of [125I]Tyr3-NT from human NTS1R expressed in WiDr cells; format: cell-based
T1 sequence (P30989 whole entry): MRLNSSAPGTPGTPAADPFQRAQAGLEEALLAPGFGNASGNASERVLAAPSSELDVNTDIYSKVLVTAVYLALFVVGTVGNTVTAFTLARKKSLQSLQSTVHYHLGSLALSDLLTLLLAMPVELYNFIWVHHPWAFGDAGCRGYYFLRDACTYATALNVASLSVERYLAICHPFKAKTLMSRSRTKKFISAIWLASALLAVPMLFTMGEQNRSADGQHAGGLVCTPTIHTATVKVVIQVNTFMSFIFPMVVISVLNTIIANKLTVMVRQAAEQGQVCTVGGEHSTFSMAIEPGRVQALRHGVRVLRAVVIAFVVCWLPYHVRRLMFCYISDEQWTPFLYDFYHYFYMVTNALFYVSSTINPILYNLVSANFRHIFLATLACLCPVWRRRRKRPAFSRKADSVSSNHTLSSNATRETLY

[2] = target: T1, Neurotensin receptor type 1; assay: Displacement of [125I]Tyr3-NT from human NTS1R expressed in HT29 cells; format: cell-based, HT-29
[3] = target: T1, Neurotensin receptor type 1; assay: Displacement of [125I]Tyr3-NT from NTS1R in human exocrine ductal pancreatic carcinoma

| SMILES | IC50 [1] | IC50 [2] | IC50 [3] |
| --- | --- | --- | --- |
| CC[C@H](C)[C@H](NC(=O)[C@H](Cc1ccc(O)cc1)NC(=O)[C@@H]1CCCN1C(=O)[C@H](CCCN=C(N)N)NCC(CCCCN)NC(=O)CNC(=O)C(CNCCN)CNCCN)C(=O)N[C@@H](CC(C)C)C(=O)O (stereo partly drawn) [DEMOTENSIN 2] (H-[X3]([Gly-X2])PYIL-OH) | 0.18 nM | 0.41 nM |  |
| CC(C)C[C@H](NC(=O)[C@@H](NC(=O)[C@H](Cc1ccc(O)cc1)NC(=O)[C@@H]1CCCN1C(=O)[C@H](CCCN=C(N)N)NCC(CCCCN)NC(=O)CNC(=O)C(CNCCN)CNCCN)C(C)(C)C)C(=O)O (stereo partly drawn) [DEMOTENSIN 3] (H-[X3]([Gly-X2])PY[Tle]L-OH) | 0.66 nM | 1.5 nM |  |
| CC(C)C[C@H](NC(=O)[C@@H](NC(=O)[C@H](Cc1ccc(O)cc1)NC(=O)[C@@H]1CCCN1C(=O)[C@H](CCCN=C(N)N)NCC(CCCN=C(N)N)NC(=O)CNC(=O)C(CNCCN)CNCCN)C(C)(C)C)C(=O)O (stereo partly drawn) [DEMOTENSIN 4] (H-[X1]([Gly-X2])PY[Tle]L-OH) | 0.51 nM | 0.85 nM | 2.9 nM |
| CC[C@H](C)[C@H](NC(=O)[C@H](Cc1ccc(O)cc1)NC(=O)[C@@H]1CCCN1C(=O)[C@H](CCCN=C(N)N)NC(=O)[C@H](CCCN=C(N)N)NC(=O)CNC(=O)C(CNCCN)CNCCN)C(=O)N[C@@H](CC(C)C)C(=O)O [Demotensin 1] (X2-GRRPYIL-OH) |  | 0.32 nM |  |
